Test: Thermodynamic solubility of regorafenib monohydrate in different solvents
Format: physicochemical
Conditions: thermodynamic from solid
From the text: Regorafenib monohydrate has a limited solubility profile.

Measured: solubility

CNC(=O)c1cc(Oc2ccc(NC(=O)Nc3ccc(Cl)c(C(F)(F)F)c3)c(F)c2)ccn1 [regorafenib monohydrate, 4-{4-[({[4-chloro-3-(trifluoromethyl)phenyl]amino}carbonyl)amino]-3-fluorophenoxy}-N-methylpyridine-2-carboxamide]
< 100 µg/mL: aqueous with cosolvent or surfactant or cyclodextrin, solvent HPβ-Cyclodextrin/water (10:90) | oil or lipid, solvent Light liquid paraffin | solvent Water

Reference: patent publication US20140179745A1, “TOPICAL OPHTHALMOLOGICAL PHARMACEUTICAL COMPOSITION CONTAINING REGORAFENIB” (Bayer Healthcare LLC, priority 2012, published 2014)
